Structures are written as SMILES. Like-named read-outs stand apart in the source and are kept apart here.

The subject of one assay is Colo205. As to the kind of experiment: Cell-based proliferation assay for determination of GI50 values, colon cancer cell line. The following applies: Homo sapiens, COLO 205; 96 h treatment, cyquant cell proliferation assay; read-out: Cellular activities GI50, Colo205. The method, then: (§1) Cell-based Proliferation assay for determination of GI50 values
(§2) Three different cancer cell lines were obtained from ATCC: Human colon cancer cell line (Colo205), human breast cancer cell lines (MDA-MB435), and human lung cancer cell line (NCl-H522). Colo205 cells and NCl-H522 were cultivated in RPMI 1640 containing 2 mM
(§3) L-Glutamine, 5% FBS, 1.0 mM Na Pyruvate. MDA-MB435 cells were cultivated in DMEM containing 2 mM L-Glutamine, 5% FBS. Colo205 cells were seeded in 96-wells plate at 2000 and 5000 cells per well respectively. MDA-MB435 and NCl-H522 cells were seeded in 96-wells plate at 6000 cells per well. The plates were incubated at 37° C., 5% CO2, for 24 h. Cells were treated with compounds at various concentrations for 96 h. Cell growth was then monitored using cyquant cell proliferation assay (Invitrogen Pte Ltd). Dose response curves were plotted to determine GI50 values for the compounds using XL-fit (ID Business Solution, Emeryville, Calif.).

The target in the next assay is T1, HDAC1 enzyme (GST-HDAC1) (Homo sapiens, UniProt Q13547).
T1 construct: Amplification of human HDAC1 and HDAC8 coding region from this cDNA library; made in house; host or cells: SF9 insect cells (baculovirus, pDEST20 vector)
T1 sequence (Q13547 whole entry): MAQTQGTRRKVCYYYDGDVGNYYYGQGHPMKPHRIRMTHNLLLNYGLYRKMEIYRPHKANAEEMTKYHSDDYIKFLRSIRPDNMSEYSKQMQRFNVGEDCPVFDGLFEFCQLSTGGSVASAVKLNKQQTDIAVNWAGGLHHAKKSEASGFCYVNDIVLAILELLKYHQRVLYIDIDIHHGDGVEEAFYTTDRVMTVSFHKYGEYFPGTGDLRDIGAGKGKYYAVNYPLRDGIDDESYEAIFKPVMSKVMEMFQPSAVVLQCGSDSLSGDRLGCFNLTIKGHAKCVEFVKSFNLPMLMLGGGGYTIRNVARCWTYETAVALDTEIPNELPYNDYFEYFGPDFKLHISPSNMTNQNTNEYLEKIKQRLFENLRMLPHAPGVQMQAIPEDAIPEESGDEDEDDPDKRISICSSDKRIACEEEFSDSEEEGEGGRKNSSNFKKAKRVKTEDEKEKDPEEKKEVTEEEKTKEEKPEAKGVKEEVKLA
In words: In vitro HDAC assay for determination of IC50 values (BIOMOL fluorescent-based HDAC activity assay), HDAC1. In kind it is biochemical. Conditions: 600 nM HDAC1 enzyme, 500 μM Flur de lys generic substrate, room temperature 2 h. The method, then:
(§4) Recombinant GST-HDAC1 and GST-HDAC-8 Protein expression and purification
Human cDNA library was prepared using cultured SW620 cells. Amplification of human HDAC1 and HDAC8 coding region from this cDNA library was cloned separately into the baculovirus expression pDEST20 vector and pFASTBAC vector respectively (GATEWAY Cloning Technology, Invitrogen Pte Ltd). The pDEST20-HDAC1 and pFASTBAC-HTGST-HDAC8 constructs were confirmed by DNA sequencing. Recombinant baculovirus was prepared using the Bac-To-Bac method following the manufacturer's instruction (Invitrogen Pte Ltd). Baculovirus titer was determined by plaque assay to be about 10^8 PFU/ml.
(§5) Expression of GST-HDAC1 or HTGST-HDAC8 was done by infecting SF9 cells (Invitrogen Pte Ltd) with pDEST20-HDAC1 or pFASTBAC-GST-HDAC8 baculovirus at MOI=1 for 48 h. Soluble cell lysate was incubated with pre-equilibrated Glutathione Sepharose 4B beads (Amersham) at 4° C. for 2 h. The beads were washed with PBS buffer for 3 times. The GST-HDAC1 protein or GST-HDAC8 protein was eluted by elution buffer containing 50 mM Tris, pH8.0, 150 mM NaCl, 1% Triton X-100 and 10 mM or 20 mM reduced Glutathione. The purified GST-HDAC1 protein or purified GST-HDAC8 protein was dialyzed with HDAC storage buffer containing 10 mM Tris, pH7.5, 100 mM NaCl and 3 mM MgCl2. 20% Glycerol was added to purified GST-HDAC1 protein or purified GST-HDAC8 before storage at −80° C.
(§6) In vitro HDAC assay for determination of IC50 values
The assay has been carried out in 96 well format and the BIOMOL fluorescent-based HDAC activity assay has been applied. The reaction composed of assay buffer, containing 25 mM Tris pH 7.5, 137 mM NaCl, 2.7 mM KCl, 1 mM MgCl2, 1 mg/ml BSA, tested compounds, 500 nM HDAC8 enzyme or 600 nM HDAC1 enzyme, 200 μM Flur de lys p53 peptide substrate for HDAC8 enzyme or 500 μM Flur de lys generic substrate for HDAC1 enzyme and subsequently was incubated at room temperature for 2 h. Flur de lys Developer was added and the reaction was incubated for 10 min. Briefly, deacetylation of the substrate sensitizes it to the developer, which then generates a fluorophore The fluorophore is excited with 360 nm light and the emitted light (460 nm) is detected on a fluorometric plate reader (Tecan Ultra Microplate detection system, Tecan Group Ltd.).
(§7) The analytical software, Prism 3.0® (GraphPad Software Inc) has been used to generate IC50 from a series of data.

A further assay concerns NCI H552. As to the kind of experiment: Cell-based proliferation assay for determination of GI50 values, lung cancer cell line. The following applies: Homo sapiens; 96 h treatment, cyquant cell proliferation assay; read-out: Cellular activities GI50, NCI H552. On the procedure:
as §1, §2, §3

The next assay concerns the target T2, HDAC8 enzyme (GST-HDAC8) (Homo sapiens, UniProt Q9BY41).
T2 construct: Amplification of human HDAC1 and HDAC8 coding region from this cDNA library; made in house; host or cells: SF9 insect cells (baculovirus, pFASTBAC vector)
T2 sequence (Q9BY41 1-377): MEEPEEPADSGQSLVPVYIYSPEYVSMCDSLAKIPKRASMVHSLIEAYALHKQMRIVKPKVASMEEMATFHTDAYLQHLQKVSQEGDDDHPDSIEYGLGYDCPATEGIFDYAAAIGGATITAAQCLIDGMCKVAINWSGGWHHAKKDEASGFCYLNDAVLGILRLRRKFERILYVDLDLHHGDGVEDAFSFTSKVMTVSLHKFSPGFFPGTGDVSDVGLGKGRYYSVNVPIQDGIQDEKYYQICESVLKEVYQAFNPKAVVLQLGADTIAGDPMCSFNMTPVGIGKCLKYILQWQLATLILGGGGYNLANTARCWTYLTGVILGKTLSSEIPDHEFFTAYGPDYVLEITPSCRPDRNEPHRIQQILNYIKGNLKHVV
As to the kind of experiment: In vitro HDAC assay for determination of IC50 values (BIOMOL fluorescent-based HDAC activity assay), HDAC8. In kind it is biochemical. On the procedure:
as §4
Human cDNA library was prepared using cultured SW620 cells. Amplification of human HDAC1 and HDAC8 coding region from this cDNA library was cloned separately into the baculovirus expression pDEST20 vector and pFASTBAC vector respectively (GATEWAY Cloning Technology, Invitrogen Pte Ltd). […] Recombinant baculovirus was prepared using the Bac-To-Bac method following the manufacturer's instruction (Invitrogen Pte Ltd).
as §5, §6
The assay has been carried out in 96 well format and the BIOMOL fluorescent-based HDAC activity assay has been applied. […] Flur de lys Developer was added and the reaction was incubated for 10 min. Briefly, deacetylation of the substrate sensitizes it to the developer, which then generates a fluorophore The fluorophore is excited with 360 nm light and the emitted light (460 nm) is detected on a fluorometric plate reader (Tecan Ultra Microplate detection system, Tecan Group Ltd.).
as §7

[1] abbreviates: 500 nM HDAC8 enzyme, 200 μM Flur de lys p53 peptide substrate, room temperature 2 h, read-out: HDAC8 Enzyme Activity, IC50.

As a reminder, the GI50 is the concentration that inhibits growth by half. As usually defined, the IC50 is the midpoint of a concentration-inhibition curve. Take `O=C(Cc1ccc(-c2csc(NC(=O)Cc3ccccc3)n2)s1)NO` [Example 1, N-Hydroxy-2-[5-(2-phenylacetylamino-thiazol-4-yl)-thiophen-2-yl]-acetamide]: the GI50 in the assay on Colo205 stood at 12.1 µM; in the assay with NCI H552, 2.36 µM. Moreover, the values for the IC50 at HDAC1 enzyme (GST-HDAC1) and against HDAC8 enzyme (GST-HDAC8) were > 100 µM and 0.041 µM, respectively.

As to `Nc1nc(-c2ccc(/C=C/C(=O)NO)cc2)cs1` [Example 23, 3-[4-(2-Amino-thiazol-4-yl)-phenyl]-N-hydroxy-acrylamide], the GI50 in the assay with Colo205 came to 7.72 µM; in the assay on NCI H552, 13.3 µM. For the same molecule, the IC50 was 0.51 µM on HDAC1 enzyme (GST-HDAC1) and 0.1 µM at HDAC8 enzyme (GST-HDAC8) (setting [1]).

With `O=C(NO)c1ccc(-c2ccc(CNCCc3ccccc3)cc2)s1` [Example 26, 5-[4-(Phenethylamino-methyl)-phenyl]-thiophene-2-carboxylic acid hydroxyamide], the GI50 with Colo205 was determined as 1.86 µM. The results for the IC50 against HDAC1 enzyme (GST-HDAC1) and at HDAC8 enzyme (GST-HDAC8) (setting [1]) were 0.066 µM and 0.016 µM, respectively.

Turning to `O=C(NO)c1ccc(-c2ccc(CNCCc3ccccn3)cc2)s1` [Example 27], in the assay with Colo205, the GI50 is 2.39 µM. The IC50 stood at 0.2 µM at HDAC1 enzyme (GST-HDAC1) and 0.12 µM at HDAC8 enzyme (GST-HDAC8) (setting [1]).

Source of the values: patent publication US20070167499A1, “Biaryl linked hydroxamates: preparation and pharmaceutical applications” (A*BIO Pte Ltd., priority 2003, published 2007).
